Experimental data reported in publication PMC12442099 (ACS Infectious Diseases, 2025).
≈ marks a conversion by molar mass, not a printed value.

Tests used:
[1] = system: Rcs stress response in E. coli TOP10F’; assay: Rcs stress kinetics reporter assay; assay type: cell-based; settings: for Rcs stress induction in SOS-deficient TOP10F’: fold change fluorescence/OD600
Experimental: (§1) Stress was measured in real-time during 10 h following compound treatment by normalizing the fluorescence intensity for growth as indicated by the optical density at 600 nm (OD600) of the culture.
(§2) 3 Bacterial stress responses of different compound classes as shown in panel (A). (B) Rcs, (C) σE, (D) Cpx, and (E) heat shock. Graphs show fold change in fluorescence normalized for OD600 at EC80 compound concentrations over the course of 10h. Fold change values were determined by comparing OD600‑normalized fluorescence of compound-treated samples to DMSO treated samples. PMBN is used as a CE stress-inducing control at 25 μg/mL, which is the concentration used as a control during the screening campaign. Chloramphenicol at 1 μg/mL is used as a non-stress-inducing antibiotic control. Error bars indicate standard deviation of the average of triplicate samples from at least two independent experiments. (F) Overview of the different stress responses based on the compound class.
(§3) For lower throughput analysis under laboratory conditions, cultures grown to OD600 of 0.3–0.4 were diluted to a final concnetration of 0.05 OD600 units/mL in black, clear-bottom 96-well plates (Greiner Bio-One B.V.). Plates were incubated in a Biotek HTX or H1 plate reader (Agilent Technologies) at 37 °C with continuous shaking. Kinetic studies were performed by measuring OD600 and fluorescence (Ex./Em. Λ: 485/528 nm) every 20 min for 10h. For end point measurements, fluorescence was measured at T = 0 and once more at T = 150 min.

[2] = system: SOS stress response in E. coli MC4100; assay: SOS stress reporter assay (PlexA-mNG); assay type: cell-based; settings: EC80 compound concentrations (Fig. 5A); Fig. S4
Text: (§4) To examine the potential link between DNA gyrase inhibition, SOS stress, and CE stress, we designed a fluorescent SOS reporter plasmid, similar to the reporter plasmids used to study CE stresses.
5 (A) SOS stress induced by different compounds at EC80 concentrations in E. coli MC4100. (B) Rcs stress of different compounds at EC80 concentrations in E. coli MC4100. (C) Rcs stress of the nonquinolone gyrase inhibitor LEI-800 in TOP10F’. (D) Rcs stress induced by mitomycin C in E. coli TOP10F’ and E. coli MC4100. Graphs show fold change in fluorescence adjusted for bacterial growth (OD600). Error bars indicate standard deviation of triplicates. Data are representative of two independent experiments with similar results.

[3] = system: Rcs stress response in E. coli MC4100 (WT, FQR, GEPR); assay: Rcs stress reporter assay in MC4100 wildtype and resistant mutants; assay type: cell-based; settings: EC80 concentrations
Text: Serial passaging of E. coli MC4100 in the presence of increasing concentrations of lomefloxacin or gepotidacin yielded resistant variants of E. coli MC4100. We used MC4100 to raise resistance, because unlike the screening strain TOP10F’, this strain has a functional SOS stress response, which has been implicated in developing resistance against quinolones. Compounds also elicited a robust Rcs stress response in E. coli MC4100, allowing for this strain to be used for stress assays.
4 Rcs stress induced by EC80 concentrations of (A) lomefloxacin, (B) gepotidacin, (C) A2, and (D) B1 in wildtype (WT), fluoroquinolone resistant (FQR) or gepotidacin resistant (GEPR) bacteria. Graphs show the fold change in fluorescence adjusted for bacterial growth as determined by OD600. Error bars indicate the standard deviation of triplicate samples. Data are representative of three independent experiments with similar results. […]
as §3

[4] = system: E. coli TOP10F'; assay: Growth inhibition after 7 hours (EC80/EC50); settings: for EC50 / IC80: Escherichia coli, 7 h; for EC50: read-out: EC50 TOP10F'; for IC80: read-out: EC80 TOP10F'
[5] = system: E. coli MC4100; assay: Growth inhibition after 7 hours (EC80/EC50); settings: Escherichia coli, MC4100, 7 h; for EC50: read-out: EC50 MC4100; for IC80: read-out: EC80 MC4100
[6] = system: Rcs stress (PrprA-mNG) in E. coli TOP10F’ cells; assay: Rcs stress reporter assay, laboratory scale 96-well end point; assay type: cell-based; settings: 50 μM MRL-494, 150 min, compared to 25 μM PMBN (100%)
Experimental: as §3

[7] = system: A. baumanni 9955; assay: MIC broth microdilution; assay type: cell-based; settings: Acinetobacter baumannii, clinical isolate, CAMHB, median of triplicates, read-out: MIC (μg/mL) A. baumanni 9955
Experimental: (§5) The antibacterial activity of the compounds was determined by measuring their minimum inhibitory concentration (MIC) values using the broth microdilution method according to the Clinical and Laboratory Standards Institute guidelines (CLSI). Briefly, a single colony from blood agar plates was inoculated into cation-adjusted Mueller-Hinton broth (CAMHB) and grown to OD600 = 0.5. Next, 10^6 CFU/mL were added to a 2-fold serial dilution series of test compounds and incubated at 37 °C, 600 rpm overnight (18–20 h for Gram-negative strains, 20–24 h for Gram-positive strains), after which the plates were visually inspected for bacterial growth. MICs are reported as the median of triplicates.

[8] = system: E. coli 25922; assay: MIC broth microdilution; assay type: cell-based; settings: Escherichia coli, CAMHB, median of triplicates, read-out: MIC (μg/mL) E. coli 25922
Experimental: as §5

[9] = system: E. coli BW25113; assay: MIC broth microdilution; assay type: cell-based; settings: Escherichia coli, CAMHB, median of triplicates, read-out: MIC (μg/mL) E. coli BW25113
Experimental: as §5

[10] = system: E. coli TOP10F’; assay: MIC broth microdilution; assay type: cell-based; settings: Escherichia coli; screening strain; CAMHB, median of triplicates; read-out: MIC (μg/mL) E. coli TOP10F’
Experimental: as §5

[11] = system: K. pneumoniae 13883; assay: MIC broth microdilution; assay type: cell-based; settings: Klebsiella pneumoniae, clinical isolate, CAMHB, median of triplicates, read-out: MIC (μg/mL) K. pneumoniae 13883
Experimental: as §5

[12] = system: P. aeruginosa 27853; assay: MIC broth microdilution; assay type: cell-based; settings: Pseudomonas aeruginosa, clinical isolate, CAMHB, median of triplicates, read-out: MIC (μg/mL) P. aeruginosa 27853
Experimental: as §5

[13] = system: S. aureus USA 300; assay: MIC broth microdilution; assay type: cell-based; settings: Staphylococcus aureus, USA300; clinical isolate; CAMHB, median of triplicates; read-out: MIC (μg/mL) S. aureus USA 300
Experimental: as §5

[14] = system: σE stress response in E. coli TOP10F’; assay: σE stress kinetics reporter assay; assay type: cell-based
Experimental: as §1, §2, §3

[15] = system: Cpx stress response in E. coli TOP10F’; assay: Cpx stress kinetics reporter assay; assay type: cell-based
Experimental: as §1, §2, §3

[16] = system: E. coli MC4100 FQR and GEPR mutants; assay: Growth kinetics on resistant mutants; assay type: cell-based; settings: EC80 concentrations, Fig. S3
Experimental: ONC of E. coli MC4100 were diluted to OD600 = 0.07 in 20 mL LB supplemented with an initial concentration of 0.4 μM lomefloxacin, 8 μM gepotidacin, or no antibiotic. After overnight incubation, part of the culture was plated onto LB agar plates with the same concentration of lomefloxacin or gepotidacin to isolate resistant colonies. OD600 of the remaining culture was determined and diluted to OD600 = 0.1 into fresh medium with a 1.5–2-fold increased concentration of lomefloxacin or gepotidacin. […] Resistant colonies were sent for Whole Genome Sequencing using short Illumina reads at MicrobesNG (Birmingham, UK). Sequencing data was analyzed using CLC Genomics Workbench (Qiagen).
Figure S3: Growth kinetics of lomefloxacin, gepotidacin, A2 and B1 on WT, FQR and GEPR mutants. E. coli
TOP10F’ cells were treated with EC80 concentrations of compounds and growth (OD600) recorded over time.
Graphs indicate % growth compared to DMSO control. Error bars indicate standard deviations of triplicates. […]

[17] = system: SOS stress response in E. coli TOP10F’; assay: SOS stress reporter assay (PlexA-mNG); assay type: cell-based; settings: Fig. S4
Experimental: as §4
Figure S3: Growth kinetics of lomefloxacin, gepotidacin, A2 and B1 on WT, FQR and GEPR mutants. E. coli TOP10F’ cells were treated with EC80 concentrations of compounds and growth (OD600) recorded over time.
Graphs indicate % growth compared to DMSO control. Error bars indicate standard deviations of triplicates.
Data are representative of three independent experiments with similar results.
Fold change (RFU/OD600) MMC 1.6 μM
Fold change (RFU/OD600) Lome 18 μM
Figure S4: SOS stress induced by mitomycin C (MMC) and lomefloxacin (Lome). A) E. coli MC4100 or B) TOP10F’ cells with a plasmid expressing mNeonGreen under control of a PlexA promotor were treated with compounds and growth (OD600) and fluorescence recorded over time. Graphs indicate fold change in growth-adjusted fluorescence compared to DMSO control. Error bars indicate standard deviations of triplicates. […]

[18] = system: heat shock (groES) response in E. coli TOP10F’; assay: Heat shock (groES) stress kinetics reporter assay; assay type: cell-based; settings: PMBN 25 μg/mL
Experimental: as §1
3 Bacterial stress responses of different compound classes as shown in panel (A). (B) Rcs, (C) σE, (D) Cpx, and (E) heat shock. Graphs show fold change in fluorescence normalized for OD600 at EC80 compound concentrations over the course of 10h. Fold change values were determined by comparing OD600‑normalized fluorescence of compound-treated samples to DMSO treated samples. PMBN is used as a CE stress-inducing control at 25 μg/mL, which is the concentration used as a control during the screening campaign. Chloramphenicol at 1 μg/mL is used as a non-stress-inducing antibiotic control. […]
as §3

[19] = compounds at EC80, PMBN 25 μg/mL
[20] = Figure 3F, compounds at EC80, PMBN 25 μg/mL

Row | Compound | Rcs stress induction in SOS-deficient TOP10F’ [1] | SOS stress induction in MC4100 [2] | Rcs stress induction in MC4100 wildtype [3] | EC50 [4] | IC80 [4] | EC50 [5] | IC80 [5] | Rcs Pattern [1, 19] | σE Pattern [14, 19] | Rcs stress in FQR (gyrA S83L) mutant [3] | growth inhibition / susceptibility of GEPR mutant [16] | SOS stress induction in TOP10F’ [17] | other results
1 | O=S(=O)(NC[C@@H]1CC[C@H](c2ccc(-c3cccnc3)cc2)N1)c1cccc2cnccc12 [LEI-800, reference compound] | induced high levels of Rcs stress similar to CluB compounds | did not induce strong fluorescence | Neither compound induced Rcs stress | 1 µg/mL (≈ 2.25 µM) | 8 µg/mL (≈ 18 µM) | 2 µg/mL (≈ 4.5 µM) | 8 µg/mL (≈ 18 µM) | – | – | – | – | – | –
2 | NC(N)=NC(=O)CC(Nc1nc(N=C(N)N)nc(NC2CCC(NC(=O)Cn3nnc(-c4ccc(F)cc4)n3)CC2)n1)C1CC1 (centres unmarked) [MRL-494, reference compound] | – | – | – | – | – | – | – | – | – | – | – | – | % effect (Rcs stress-induced fluorescence) [6]: 100.4%; EC50 TOP10F' ([4]; growth after 7 hours inhibited by 50% compared to DMSO control): 16 µg/mL (≈ 25.7 µM); EC80 TOP10F' ([4]; growth after 7 hours inhibited by 80% compared to DMSO control): 32 µg/mL (≈ 51.4 µM)
3 | O=c1ccc2ncc(=O)n3c2n1C[C@H]3CN1CCC(NCc2cc3c(cn2)OCCC3)CC1 [gepotidacin, Gepotidacin, reference compound] | – | – | – | 0.125 µg/mL (≈ 0.279 µM) | 8 µg/mL (≈ 17.8 µM) | 1 µg/mL (≈ 2.23 µM) | 8 µg/mL (≈ 17.8 µM) | biphasic | biphasic | still exhibited Rcs stress | moderate insensitivity | – | MIC [7]: 16 µg/mL (≈ 35.7 µM); MIC [8]: 2 µg/mL (≈ 4.46 µM); MIC [9]: 1 µg/mL (≈ 2.23 µM); MIC [10]: 0.06 µg/mL (≈ 0.134 µM); MIC [11]: 4 µg/mL (≈ 8.92 µM); MIC [12]: 8 µg/mL (≈ 17.8 µM); MIC [13]: 0.25 µg/mL (≈ 0.557 µM); Rcs onset time ([1]; EC80 concentrations): ~100 min; time of (first) Rcs peak post-treatment ([1]; EC80 concentrations): 260 to 280 min; fold increase in Rcs stress (up to) ([1]; EC80 concentrations, fluorescence/OD600 vs DMSO, 10 h): ~17 fold; time of primary σE peak ([14]; EC80 concentrations): ~150 min; σE onset time ([14]; EC80 concentrations): ~60 min; fold change in σE stress (up to) ([14]; EC80 concentrations, vs DMSO): ~3 fold; Cpx onset time ([15]; EC80 concentrations): 150 to 200 min; Rcs stress in GEPR mutant [3]: did not show Rcs stress; growth inhibition / susceptibility of FQR (gyrA S83L) mutant [16]: remained susceptible to growth inhibition
4 | CCn1cc(C(=O)O)c(=O)c2cc(F)c(N3CCNC(C)C3)c(F)c21 (centres unmarked) [lomefloxacin, Lomefloxacin, reference compound] | – | high fluorescence | – | 0.031 µg/mL (≈ 0.0882 µM) | 2 µg/mL (≈ 5.69 µM) | 0.125 µg/mL (≈ 0.356 µM) | 0.25 µg/mL (≈ 0.712 µM) | – | – | lacked Rcs stress | less susceptible | did not induce high fluorescence | –
5 | CO[C@@]12[C@H](COC(N)=O)C3=C(C(=O)C(C)=C(N)C3=O)N1C[C@@H]1N[C@@H]12 [mitomycin C] | at lower levels than the gyrase inhibitors | high fluorescence | Neither compound induced Rcs stress | – | – | – | – | – | – | – | – | did not induce high fluorescence | –
6 | polymyxin B nonapeptide [PMBN] | – | – | – | – | – | – | – | Single peak | Single peak | – | – | – | Rcs Response time [1, 20]: Fast; σE Response time [14, 20]: Fast; Cpx Pattern [15, 20]: Continuous; Cpx Response time [15, 20]: Slow; heat shock induction [18]: did not induce heat shock
